Laboratory results taken from patent US9024069B2, “NONOate derivatives and uses thereof” (Ironwood Pharmaceuticals, priority 2012, dated 2015).

How the values were obtained:
[1] = Nitric oxide (NOx) level after oral dosing in male rats, Nitrate/Nitrite Colorimetric Assay; assay type: in vivo, rat; conditions: male SD rats, oral gavage; Fenofibrate 24.8 mg/kg, compounds 6, 7, 8 at 32, 34, 33.8 mg/kg; FIG. 2
Experimental: 15 male SD (Sprague Dawley) rats were allowed to acclimate for at least 3 days. Fenofibrate, compounds 6, 7, and 8 were administered via oral gavage at molar equivalent doses of 24.8, 32, 34, 33.8 mg/kg, respectively. Animals were fasted overnight and had their food replaced 4 hours after dosing. Compounds were formulated in 300 μL of 100% PEG400. Animals were euthanized under CO2 at the 24 hr time point. Plasma samples were taken for analytical determination of fenofibric acid from compounds in vacutainers containing sodium fluoride. Serum samples were taken for nitric oxide level determination in BD serum collection tubes.
Fenofibric acid was extracted from the plasma using an acetonitrile protein precipitation method. Samples were run on a Waters Aquity TQD LC-MS/MS and analyzed using the MassLynx software. Nitric Oxide levels were measured in serum using a Nitrate/Nitrite Colorimetric Assay Kit from Caymen Chemicals.

normotensive rats = experiment: Rat normotensive blood pressure model; assay type: in vivo; conditions: normotensive conscious SD rats, single oral dose 30 mg/kg, 6 hours monitoring; FIG. 6
From the text: 36 male SD rats were allowed to acclimate for at least 3 days. After conditioning the rats were arterially cannulated and assigned to 4 treatment groups, with the goal of achieving n=6/group.
After the acclimation period, the rats were briefly anesthetized with inhaled isoflurane and implanted a small bore femoral artery cannula to permit CV monitoring under conscious unrestrained conditions as conducted in prior studies. 18 rats were cannulated per day on 2 consecutive days and allowed 2 days of post-operative recovery prior to CV testing. 12 rats per day were monitored for each of 2 consecutive daily test sessions.
On the morning of the test sessions, the rats were placed in individual bell jars and their femoral artery cannulas were attached to pressure transducers. CV monitoring consisted of continuously recording mean arterial pressure (MAP) and spot checking heart rate (HR; every 5 to 7 minutes) prior to and for 6 hours after a single oral treatment as in previous studies.
Also on the morning of testing, 4 oral treatments in 500 μl of 100% PEG 400 were formulated. The rats were allowed about 1 hour of equilibration prior to dosing. Once suitably equilibrated, each rat was dosed with an oral vehicle or a drug, delivered by standard gavage. The CV recording was continued over the 6-hour post-treatment interval, occasional small flushes of heparinized saline (˜0.1 mL; 20 units/mL) were administered into their arterial catheters in order to maintain recording fidelity.
At the conclusion of the 6-hour CV monitoring interval, a terminal ˜0.6 mL arterial blood sample was taken and the serum or plasma was processed.

rat aortic ring = experiment: Thoracic aortic rings assay (vasorelaxation of phenylephrine-contracted rings); assay type: ex vivo tissue; conditions: rat thoracic aortic rings contracted with 100 ng/mL phenylephrine; cumulative dosing; FIG. 3
Experimental: Thoracic aortic rings were dissected from anesthetized (isoflurane) male Sprague-Dawley rats weighing 275-299 g. Tissues were immediately transferred to ice-cold Krebs-Henseleit solution, which had been aerated with 95% O2 and 5% CO2 for 30 minutes. Following removal of connective tissue, aortic sections were cut into 4 rings (˜2 mm each) and suspended on 2 L-shaped hooks, with one hook fixed at the bottom of the tissue bath (Schuler Organ Bath, Harvard Apparatus) and the other connected to a force transducer (F30 Force Transducer, Harvard Apparatus). Baths contained Krebs Henseleit solution (10 mL) heated to 37° C. and aerated with 95% O2 and 5% CO2. Rings were brought to an initial tension of 0.3-0.5 g and gradually raised to a resting tension of 1.0 g over 60 minutes. Rings were rinsed with Krebs Henseleit solution (heated to 37° C. and aerated with 95% 02 and 5% CO2) at 15 minute intervals until a stable baseline was obtained. Rings were considered to be stable after a resting tension of 1.0 g was maintained (for approximately 10 minutes) without need for adjustment. Rings were then contracted with 100 ng/mL phenylephrine by adding 100 uL of a 10 μg/mL phenylephrine stock solution. Tissues achieving a stable contraction were then treated in a cumulative, dose dependent manner with test compounds prepared in dimethylsulfoxide (DMSO). In some cases, tissues were rinsed three times over a 5 minute period with Krebs-Heinseleit's solution (heated to 37° C. and aerated with 95% O2 and 5% CO2), allowed to stabilize at baseline, and then used for characterization of other test articles or DMSO effects. All data were collected using the HSE-ACAD software provided by Harvard Apparatus. Percent relaxation effects were calculated in Microsoft Excel using the recorded tension value of 100 ng/mL phenylephrine treatment as 0% inhibition and treatment with 100 μM 3-isobutyl-1-methylxanthine as 100% inhibition. EC50 values were calculated from concentration-response curves generated with GraphPad Prism Software. […]

L-NAME hypertensive rats = experiment: Rat L-NAME induced hypertension blood pressure model; assay type: in vivo; conditions: oral gavage, 6 hours monitoring, compound 8 at 10, 30, 60 mg/kg, Fenofibrate 49.6 mg/kg, FIGS. 7 and 8
Experimental: L-NAME induced hypertension model was carried out at Pharmoptima. Based on the rats' projected average daily water intake, the NO synthase inhibitor L-NAME, L-NG-nitroarginine methyl ester, which induces hypertension, were dissolved in their drinking water so that the rats self-administered tested compounds for 2 weeks prior to study at the targeted daily L-NAME dosage. The rats' L-NAME/water solution was reformulated every other day to insure potency.
After 2 weeks of oral L-NAME preconditioning, the rats were anesthetized with inhaled isoflurane (3-4% in oxygen) and implanted a small bore femoral artery catheter to permit cardiovascular (CV) monitoring under conscious unrestrained conditions. A total of 36 rats (18 rats/day on two consecutive days) were prepared. The catheters were sealed with sodium heparin to maintain patency.
Allow 2 days of post-operative recovery prior to study, allowing full access to food and water (containing dissolved L-NAME) water.
On the study treatment day, […] (n=6×5 treatments) were set up in bell jars under routine non-fasted conditions. Start recording mean arterial pressure (MAP) and heart rate (HR) from this first set of cannulated rats as per previous studies conducted by PharmOptima. Once stable, the rats were dosed by oral gavage. CV data were recorded from the rats over the ensuing 6 hours. 3 arterial blood samples were taken per rat and the harvested plasma samples were frozen.

[2] = test system: high fat, high cholesterol diet rats; experiment: Rat high fat, high cholesterol diet model (VAP lipid analysis); assay type: in vivo; conditions: HFHC diet rats, once daily p.o. for seven days, compound 8 at 3, 10, 30 mg/kg, Fenofibrate at 2.2, 7.3, 22 mg/kg; for very low-density lipoprotein (VLDL) cholesterol: FIG. 4; for HDL: FIG. 5
Experimental: Compounds were tested for effects on cholesterol and lipid profiles in a rat high fat diet model for example as described in Ghibaudi et al. (2002) Obes Res 10:956-63, Ricci and Levin (2003) Am J Physiol Regul Integr Comp Physiol 285:R610-8, and Gao et al. (2002) 936:87-90. Alternatively, animals were fed either a normal diet or a chow supplemented with added fat and/or cholesterol as described in Krause et al (1994) Pharm Res VoI 29, No. 4, Nishina (1993) J of Lipid Res vol 43. and Gajda et al. (2007) Animal Lab News. Based on the specific chows used in these reports, animals were fed a diet consisting of 40% fat, 1% cholesterol, and 0.5% cholic acid (catalog #D01061201, Research Diets, New Brunswick, N.J. 08901).
After at least a week on this diet, animals (6-8/group) are dosed once daily perorally with 500 uL test compounds in PEG 400. Groups are dosed for at least one week before whole blood samples are taken for analysis. Blood serum is analyzed using Vertical Auto Profile (VAP; Atherotech, Inc., Birmingham, Ala.) analysis similar to as described in Kulkarni (2006) Clin Lab Med 26:787-802.
Fenofibrate (Sigma—Cat# F6020-5G, Lot#017K1401) was tested in this assay at 2.2, 7.3 and 22 mg/kg which were equimolar equivalents (for the fenofibric acid moiety) of Compound 8 dosed at 3, 10 and 30 mg/kg. In these experiments animals (n=6 per group) were fed a high fat high cholesterol chow (HFHC; 40% fat, 1% cholesterol, 0.5% cholic acid) diet for one week before test compound administration. Animals received either vehicle only (PEG 400) or test compound (compound 8 at 3, 10 or 30 mg/kg or fenofibrate at 2.2, 7.3 or 22 mg/kg) for seven days before whole blood samples were taken for analysis.

Structure (SMILES)	nitric oxide levels in the plasma upon dosing [1]	blood pressure (normotensive rats)	vasorelaxant properties (rat aortic ring)	blood pressure (L-NAME hypertensive rats)	very low-density lipoprotein (VLDL) cholesterol [2]	HDL [2]
CN(CCO)/[N+]([O-])=N/OCOC(=O)C(C)(C)Oc1ccc(C(=O)c2ccc(Cl)cc2)cc1 [Compound 6, (Z)-1-((2-(4-(4-chlorobenzoyl)phenoxy)-2-methylpropanoyloxy)methoxy)-3-(2-hydroxyethyl)-3-methyltriaz-1-ene 2-oxide]	robust increase in nitric oxide levels	lowering blood pressure	potent vasorelaxant properties in the nM range	–	–	–
CN(CCCCO)/[N+]([O-])=N/OCOC(=O)C(C)(C)Oc1ccc(C(=O)c2ccc(Cl)cc2)cc1 [Compound 7, (Z)-1-((2-(4-(4-chlorobenzoyl)phenoxy)-2-methylpropanoyloxy)methoxy)-3-(4-hydroxybutyl)-3-methyltriaz-1-ene 2-oxide]	robust increase in nitric oxide levels	lowering blood pressure	–	–	–	–
CC(C)(Oc1ccc(C(=O)c2ccc(Cl)cc2)cc1)C(=O)OCO/N=[N+](\[O-])N1CCC[C@H]1CO [Compound 8, (S,Z)-2-((2-(4-(4-chlorobenzoyl)phenoxy)-2-methylpropanoyloxy)methoxy)-1-(2-(hydroxymethyl)pyrrolidin-1-yl)diazene oxide]	robust increase in nitric oxide levels	lowering blood pressure	potent vasorelaxant properties in the nM range	lowered blood pressure in an L-NAME model of hypertension in a dose responsive manner	decreases in very low-density lipoprotein (VLDL) cholesterol	dose related increases in HDL
CC(C)OC(=O)C(C)(C)Oc1ccc(C(=O)c2ccc(Cl)cc2)cc1 [Fenofibrate, 2-[4-(4-chlorobenzoyl)phenoxy]-2-methyl-propanoic acid, 1-methylethyl ester, reference compound]	no increase in nitric oxide	–	–	did not lower blood pressure	decreases in VLDL	increases in HDL
O=[N+]([O-])O[C@H]1CO[C@H]2[C@@H]1OC[C@H]2O[N+](=O)[O-] [ISDN, isosorbide dinitrate, reference compound]	–	–	active in this assay as a vasorelaxant in the micromolar range	moderate blood pressure lowering effect	–	–
